Data reported in patent publication US20060276534A1, “Methods of decreasing calcification” (Amgen Inc., priority 2005, published 2006).

Assays:
[1] = test system: 5/6 Nx rats; experiment: Ex vivo assessment of vascular calcification: aortic calcium and phosphorus content, von Kossa staining (Example 1); format: in vivo, rat; details: 14 days; for Mineral deposits in the aorta (von Kossa staining): single agents
Procedure: (§1) The rodent model of CKD used in these studies was induced by 5/6 nephrectomy (5/6 Nx), a two-step procedure that reduces the original functional renal mass by five-sixths (5/6). In the first step, animals were anesthetized using xylazine (5 mg/kg, ip) and ketamine (80 mg/kg, ip), a 5-8 mm incision was made on the left medio-lateral surface of the abdomen, and the left kidney was exposed. The left renal artery was visualized and 2 of the 3 branches tightly ligated, after which the kidney was inspected for infarct and returned to an anatomically neutral position within the peritoneal cavity. The abdominal wall and skin incisions were closed with suture, and the rat placed back into its home cage. After 1 week of recovery, the animal was reanesthetised and a 5-8 mm incision was made on the right medio-lateral surface of the abdomen. The right kidney was exposed and unencapsulated, the renal pedicle clamped and ligated, and the kidney was removed. The ligated pedicle was returned to a neutral anatomical position and the abdomen and skin incisions closed with suture materials. The animal was allowed to recover in its home cage. Sham-operated animals underwent the same procedures without renal manipulation.
(§2) After the second surgery, the diet was changed to one with decreased calcium (0.6%) and increased phosphorus (0.9%) content. The rats were randomized (based on the normal distribution of baseline body weights) into 6 experimental groups: sham-operated (n=13) (used as a control), 5/6 Nx+vehicle (saline) (n=10), 5/6 Nx+calcitriol 80 ng/kg (Calcijex, Abbot) ip every other day (n=10), 5/6 Nx+Compound A 1.5 mg/kg per day sc (n=10) (Amgen, Thousand Oaks, Calif. USA), 5/6 Nx+Compound A 3 mg/kg per day sc (n=10), or 5/6 Nx+combination calcitriol 80 ng/kg and Compound A 1.5 mg/kg (n=10) dosed as above. Treatments were maintained for 14 days. The rats were sacrificed by aortic puncture and exsanguination under general anesthesia (ip sodium thiopenthal) 24 hours after the last dose of drug.
Following sacrifice, the abdominal aortas were dissected and divided in two parts. One part was fixated in 10% buffered formalin and subsequently sectioned and stained for mineralization by the von Kossa method. The other was dimineralized in 10% formic acid, and the arterial tissue calcium and phosphorous content measured in the supernatant according to the method described by Price et al Arterioscler Thromb Vasc Biol 20:317-27, 2000.

[2] = test system: 5/6 Nx rats; experiment: Vascular calcification regression in 5/6 Nx rats on high phosphorus diet with calcitriol; format: in vivo, rat
Procedure: Animals were 5/6 Nx as previously described and placed on a high phosphorus diet (0.6% Ca; 1.2% P) for 14 days. Animals were divided into four groups (A,B,C and D n=4-5 animals per group), one group (A) received vehicle (saline 0.2 ml i.p.) while the remaining three groups (B,C and D) received calcitriol (80 ng/kg every other day i.p.) for the course of the study (28 days). On day 14 two groups (C and D) were converted to normal diet (Ca 0.9%; P 0.6%) and group C was administered Compound A at 3 mg/kg daily p.o.), while group D received vehicle (0.5 ml of 10% captisol in water p.o.) daily. The remaining groups (A and B) were kept on the high phosphorus diet and administered either calcitriol or vehicle for the course of the study (28 days). On day 28 all animals were sacrificed (CO2) and the aortas removed for determining aortic P and Ca content (mg/g of tissue) as previously described

[3] = test system: 5/6 Nx rats; experiment: Blood chemistries in 5/6 nephrectomy rat model of CKD (Example 1); format: in vivo; details: 14 days
Source text: Male Wistar rats weighing 250 g were purchased from the Animal Breeding Facility of the University of Cordoba (Spain). Rats were housed with a 12 hr/12 hr light/dark cycle and given ad libitum access to normal diet (calcium=0.9%, phosphorus=0.6%). The experimental protocols were reviewed and approved by the Ethics Committee for Animal Research of the Universidad de Cordoba (Spain), and all animals received humane care in compliance with the Principles of Laboratory Animal Care, formulated by the National Society for Medical Research and the Guide for the Care and Use of Laboratory Animals prepared by the National Academy of Science.
as §1, §2
Blood for chemistry analyses was collected from the abdominal aorta at the end of the treatment period. Blood for measurements of ionized calcium levels was collected in heparinized syringes and immediately analyzed using a Ciba-Corning 634 ISE Ca++/pH Analyzer (Ciba-Corning Essex, England). Afterwards, plasma was separated by centrifugation and stored at −70° C. until assayed. PTH levels were quantified according to the vendor's instructions using a rat PTH(1-34) immunoradiometric assay kit (Immunotopics, San Clemente, CA). Serum creatinine, phosphorous, and total calcium were measured by spectrophotometry (Sigma Diagnostics, St. Louis, Mo., USA).
Values were expressed as the mean±standard error (SE). The difference between means for two different groups was determined by t test; the difference between means for three or more groups was assessed by ANOVA. P<0.05 was considered significant.

[4] = test system: 5/6 Nx rats; experiment: Soft tissue mineralization by Von Kossa staining in 5/6 Nx rats (Example 4); format: in vivo, rat; details: 5/6 Nx rats, 14 days
Source text: Wistar rats (200-250g), fed a 0.6% Ca and 1.2% P diet, were 5/6 nephrectomized (5/6 Nx).

[5] = test system: 5/6 Nx rats; experiment: Ca and P content of thoracic aorta in 5/6 Nx rats given paricalcitol and/or Compound B (Example 3); format: in vivo, rat; details: 14 days
Source text: Wistar rats (200-250g), fed a 0.6% Ca and 1.2% P diet, were 5/6 nephrectomized (5/6 Nx) or sham-operated (sham).

[6] = test system: 5/6 Nx rats; experiment: Serum PTH, ionized Ca, P and creatinine in 5/6 Nx rats given paricalcitol and/or Compound B (Example 3); details: 14 days
[7] = concurrent treatment with Compound A 1.5 mg/kg and calcitriol 80 ng/kg
[8] = Group C: normal diet from day 14 + Compound A 3 mg/kg daily p.o. while still receiving calcitriol, vs group D, day 28
[9] = Compound A 1.5 mg/kg per day sc, calcitriol 80 ng/kg ip every other day, or both, mean±SE
[10] = Compound A 3 mg/kg per day sc, mean±SE
[11] = 5/6 Nx rats, compared to vehicle treated 5/6 Nx animals (Compound B also vs sham)
[12] = thoracic aorta, 5/6Nx rats, paricalcitol 240 ng/kg every 48 hr ip, Compound B 1.5 mg/kg every 48 hr sc
[13] = 5/6 Nx rats, compared to 5/6 Nx+vehicle
[14] = serum, 5/6Nx rats, paricalcitol 240 ng/kg every 48 hr ip, Compound B 1.5 mg/kg every 48 hr sc
[15] = calcitriol 80 ng/kg every 48 hr ip
[16] = Group B: high phosphorus diet + calcitriol 80 ng/kg every other day i.p. 28 days, vs Group A (vehicle)

COc1cccc([C@@H](C)NCCCc2ccccc2Cl)c1.Cl [Compound A, N-(3-[2-chlorophenyl]-propyl)-R-α-methyl-3-methoxybenzylamine HCl]
Raised phosphorus content in the aortic tissue, in words ([1]; Compound A alone 1.5 or 3 mg/kg): did not | Development of aortic calcification (von Kossa staining) ([1]; addition of Compound A 1.5 mg/kg to the calcitriol-treatment regimen): prevented the development of aortic calcification | Calcitriol-induced increase in aortic calcium [1, 7]: significantly (P=0.002) attenuated | Calcitriol-induced increase in aortic phosphorus [1, 7]: significantly (P=0.013) attenuated | Mineral deposits in the aorta (von Kossa staining) [1]: not observed | Aortic calcium content [2, 8]: lower | Aortic phosphorus content [2, 8]: significant (p<0.05) reduction | Serum PTH concentration ([3]; Compound A 1.5 mg/kg per day sc alone or with calcitriol 80 ng/kg, mean±SE): 73.5 ± 12.8 pg/mL | Calcitriol mediated increase in serum creatinine levels ([3]; Compound A 1.5 mg/kg per day sc included with calcitriol 80 ng/kg): decreased | Serum ionized calcium levels [3, 9]: 1.20 ± 0.02 mmol/L | Serum phosphorus levels [3, 9]: 6.6 ± 0.3 mg/dL | Serum ionized calcium levels [3, 10]: 1.22 ± 0.02 mmol/L | Serum phosphorus levels [3, 10]: 6.9 ± 0.4 mg/dL

C[C@H](/C=C/[C@H](C)C(C)(C)O)[C@H]1CC[C@H]2/C(=C/C=C3C[C@@H](O)C[C@H](O)C3)CCC[C@]12C [Paricalcitol, paricalcitol, reference compound]
Mineralization in kidney (Von Kossa staining) ([4]; paricalcitol 240 ng/kg every 48 hr ip): increased mineralization | Aortic Ca content, change in words [5, 11]: significantly increased | Aortic P content, change in words [5, 11]: significantly increased | Aortic Ca [5, 12]: 9.5 ± 2.2 mg/g | Aortic P [5, 12]: 6.2 ± 2.4 mg/g | Blood ionized calcium, change in words [6, 13]: no changes | Creatinine, change in words [6, 13]: no changes | Serum P levels, change in words [6, 13]: no changes | Serum PTH levels, change in words [6, 13]: significantly (p<0.05) decreased | Creatinine ([6]; 5/6Nx rats, paricalcitol 240 ng/kg every 48 hr ip, Compound B 1.5 mg/kg every 48 hr sc): 2.32 ± 0.43 mg/dL | P [6, 14]: 14.7 ± 2.1 mg/dL | PTH [6, 14]: 250 ± 61 pg/mL

C=C1/C(=C\C=C2/CCC[C@]3(C)[C@@H]([C@H](C)CCCC(C)(C)O)CC[C@@H]23)C[C@@H](O)C[C@@H]1O [calcitriol, reference compound]
Mineralization in heart (Von Kossa staining) [4, 15]: increased mineralization | Mineralization in kidney (Von Kossa staining) [4, 15]: increased mineralization | Mineralization in lung (Von Kossa staining) [4, 15]: increased mineralization | Phosphorus content in the aortic tissue ([1]; calcitriol 80 ng/kg ip every other day): 2.1±1 mg/g tissue | Aortic calcium content ([1]; calcitriol 80 ng/kg ip every other day, mean±SE): 4.2±1.1 mg/g tissue | Mineral deposits in the aorta (von Kossa staining) [1]: marked von Kossa staining | Aortic calcium content [2, 16]: significant (p<0.05) increases | Aortic phosphorus content [2, 16]: significant (p<0.05) increases | Serum ionized calcium levels [3, 9]: 1.28 ± 0.02 mmol/L | Serum phosphorus levels [3, 9]: 10.2 ± 0.9 mg/dL | Serum creatinine levels ([3]; calcitriol 80 ng/kg ip every other day, alone or with Compound A 1.5 mg/kg per day sc, mean±SE): 1.05 ± 0.07 mg/dL
